Read-outs that look alike come from different tables or passages of the source.
What was measured:
[1] = system: IL-6; test: Inhibitory activity on IL-6 production from LPS-stimulated human PBMC (ELISA); assay type: cell-based; conditions: 24 h
Protocol: (§1) Inhibitory activity on cytokine production from human PBMC (peripheral blood mononuclear cell)
(§2) PBMC fractions were isolated from human blood using a mono-poly resolving medium. The cells (PBMC) were cultured in 5% FCS (fetal calf serum)/RPMI1640 medium. Thereafter, the test compound was added to the final concentration of 0.001-10 µM, and LPS (lipopolysaccharide) was added to the final concentration of 10 µg/ml. After incubatioin for 24 hours, the supernatant was separated and freeze stocked at -80°C.
(§3) On the day of experiment, the supernatant was thawed and the production amount of cytokine was measured by ELISA. IL-6 was assayed using [(h)IL-6] human, ELISA system (Amersham); TNF-α was assayed using [(h)TNF-α] human, ELISA system (Amersham); GM-CSF was assayed using human GM-CSF immunoassay (R&D systems); and IL-8 was assayed using human IL-8 immunoassay (R&D systems). The determination method followed the method of each kit. The results are expressed in IC50.

[2] = system: TNF-α; test: Inhibitory activity on TNF-α production from LPS-stimulated human PBMC (ELISA); assay type: cell-based; conditions: Homo sapiens, PBMC, 24 h
Protocol: as §1, §2, §3

[3] = system: IL-6; test: Inhibitory activity on in vivo IL-6 production by LPS stimulation; conditions: male ICR mice, LPS stimulation i.v., test compound 10 mg/kg p.o. at the same time, blood two hours later, relative to 0.5% CMC-Na group; for inhibition in vivo at 10 mg/kg: Mus musculus, po, 2 h, read-out: Inhibtion (%) of plasma IL-6 production (10 mg/kg, p.o.)
Protocol: Inhibitory activity on in vivo IL-6 production by LPS stimulation
LFS (0.3 mg/kg) was intravenously administered to male ICR mice (6-week-old) fasted for 24 hours. At the same time, the test compound suspended in 0.5% CMC-Na ( carboxymethylcellulose sodium) was orally administered at the dose of 10 mg/kg.
Two hours later, blood was taken from eyegrounds. The blood was centrifuged, and the plasma fraction was diluted and quantitatively assayed for IL-6 in blood by ELISA (Endogen EM-IL6). The inhibitory percentage of the group administered with the test compound was expressed relative to the amount of IL-6 in blood of the cup administered with 0.5% CMC-Na.

[4] = read-out: IL-6 IC50 (µM), human PBMC, LPS 10 µg/ml, incubation 24 hours, supernatant ELISA
[5] = read-out: TNF-α IC50 (µM), human PBMC, LPS 10 µg/ml, incubation 24 hours, supernatant ELISA
[6] = human PBMC, LPS 10 µg/ml, incubation 24 hours, supernatant ELISA, read-out: IL-6 IC50
[7] = human PBMC, LPS 10 µg/ml, incubation 24 hours, supernatant ELISA, read-out: TNF-α IC50

Structure (SMILES)	IC50 [1, 4]	IC50 [2, 5]	further results
COc1ccc(CN2N=C(c3ccc(OC)cc3)c3c(sc(C)c3C)-n3c(C)nnc32)cc1 [compound 18]	0.008 µM	< 0.01 µM	
Cc1sc2c(c1C)C(c1ccccc1)=NN(Cc1ccncc1)c1nnc(C)n1-2 [compound 125]	0.02 µM	< 0.01 µM	
Cc1nnc2n1-c1ccccc1C(c1ccc(Br)cc1)=NN2Cc1ccc(Br)cc1 [compound 109]	< 0.01 µM	0.07 µM	
COC(=O)c1ccc(C2=NN(Cc3ccc(C#N)cc3)c3nnc(C)n3-c3ccccc32)cc1 [Example 7, Methyl 4-[4-(4-cyanobenzyl)-1-methyl-4H-2,3,4,5,10b-pentaazabenz[e]azulen-6-yl]benzoate]			IC50 [1, 6]: 0.23 µM; IC50 [2, 7]: 0.5 µM
Cc1nnc2n1-c1ccccc1C(c1ccc(Br)cc1)=NN2Cc1ccc(Br)cc1 [Synthetic Example 109, 4-(4-Bromobenzyl)-6-(4-bromophenyl)-1-methyl-4H-2,3,4,5,10b-pentaaabenz[e]azulene]			Inhibtion (%) of plasma IL-6 production (10 mg/kg, p.o.) [3]: 51%
CCc1cc2c(s1)-n1c(C)nnc1N(Cc1cc[n+]([O-])cc1)N=C2c1ccc(Cl)cc1 [Example 4, 4-[4-(4-Chlorophenyl)-2-ethyl-9-methyl-6H-1-thia-5,6,7,8,9a-pentaazacyclopent[e]azulen-6-ylmethyl]-pyridine-1-oxide]			IC50 [1, 6]: 2 µM
Cc1sc2c(c1C)C(c1ccccc1)=NN(Cc1ccncc1)c1nnc(C)n1-2 [Synthetic Example 125, 2,3,9-Trimethyl-4-phenyl-6-(pyridin-4-ylmethyl)-6H-5,6,7,8,9a-pentaazathieno[2,3-e]azulene]			inhibition in vivo at 10 mg/kg [3]: 84%
Cc1nnc2n1-c1ccccc1C(c1ccc(Cl)cc1)=NN2Cc1ccncc1 [Synthetic Example 86, 6-(4-Chlorophenyl)-1-methyl-4-(pyridin-4-ylmethyl)-4H-2,3,4,5,10b-pentaazabenz[e]azulene]			inhibition in vivo at 10 mg/kg [3]: 89%
CCc1cc2c(s1)-n1c(C)nnc1N(Cc1ccncc1)N=C2c1ccccc1 [Synthetic Example 127, 2-Ethyl-9-methyl-4-phenyl-6-(pypidin-4-ylmethyl)-6H-5,6,7,8,9a-pentaazathieno[2,3-e]azulene]			Inhibtion (%) of plasma IL-6 production (10 mg/kg, p.o.) [3]: 83%
Cc1nnc2n1-c1ccccc1C(c1ccc(Cl)cc1)=NC2NC(=O)NC1CCCCC1 (stereo not drawn) [compound 203]	5.7 µM	0.2 µM	
Cc1ccc(C2=NN(Cc3ccncc3)c3nnc(C)n3-c3ccccc32)cc1 [Synthetic Example 103, 1-Methyl-6-(4-methylphenyl)-4-(pyridin-4-ylmethyl)-4H-2,3,4,5,10b-pentaazabenz[e]azulene]			inhibition in vivo at 10 mg/kg [3]: 75%
Cc1nnc2n1-c1ccccc1C(c1ccccc1)=NN2Cc1ccc(C#N)cc1 [compound 111]	0.4 µM	0.07 µM	
CCOC(=O)C1(NC(=O)Nc2cc(OC)ccc2OC)N=C(c2ccc(Cl)cc2)c2ccccc2-n2c(C)nnc21 (stereo not drawn) [compound 199]	1.6 µM	0.01 µM	
Cc1sc2c(c1C)C(c1ccccc1Cl)=NN(Cc1ccncc1)c1nnc(C)n1-2 [compound 20]	0.8 µM	0.06 µM	
Cc1cc2c(s1)-n1c(C)nnc1N(Cc1ccc(C#N)cc1)N=C2c1ccccc1 [compound 122]	< 0.01 µM	< 0.01 µM	
CCc1cc2c(s1)-n1c(C)nnc1N(Cc1ccncc1)N=C2c1ccccc1 [compound 127]	0.08 µM	< 0.01 µM	
Cc1nnc2n1-c1ccccc1C(c1ccc(NC(=O)OC(C)(C)C)cc1)=NN2Cc1ccc(C#N)cc1 [Example 13, tert-Butyl 4-[4-(4-cyanobenzyl)-1-methyl-4H-2,3,4,5,10b-pentaazabenz[e]azulen-6-yl]phenylcarbamate]			IC50 [1, 6]: 0.02 µM; IC50 [2, 7]: < 0.01 µM
Cc1nnc2n1-c1ccccc1C(c1ccc(NC(=O)OC(C)(C)C)cc1)=NN2Cc1ccc([N+](=O)[O-])cc1 [Example 14, tert-Butyl 4-[1 methyl-4-(4-nitrobenzyl)-4H-2,3,4,5,10b-pentaazabenz[e]azulen-6-yl]phenylcarbamate]			IC50 [1, 6]: 0.02 µM; IC50 [2, 7]: < 0.01 µM
Cc1cc2c(s1)-n1c(C)nnc1N(Cc1ccc(-c3nnn(C)n3)cc1)N=C2c1ccccc1 [Example 17, 2,9-dimethyl-4-phenyl-6-[4-(2-methyl-2H-tetrazol-5-yl)benzyl]-6H-5,6,7,8,9a-pentaazathieno[2,3-e]azulene]			IC50 [2, 7]: 0.12 µM
Cc1cc2c(s1)-n1c(C)nnc1N(Cc1ccncc1)N=C2c1ccccc1 [compound 121]	0.04 µM	< 0.01 µM	
COc1ccc(OC)c(N2C(=O)NC3(N=C(c4ccc(Cl)cc4)c4ccccc4-n4c(C)nnc43)C2=O)c1 (stereo not drawn) [compound 196]	2.5 µM	0.09 µM	
Cc1ccc(CN2N=C(c3ccc(Cl)cc3)c3ccccc3-n3c(C)nnc32)cc1 [compound 54]	0.01 µM	0.02 µM	
Cc1sc2c(c1C)C(c1ccc(Cl)cc1)=NN(Cc1cc[n+]([O-])cc1)c1nnc(C)n1-2 [Example 3, 4-[4-(4-Chlorophenyl)-2,3,9-trimethyl-6H-1-thia-5,6,7,8,9a-pentaazacyclopent[e]azulen-6-ylmethyl]-pyridine-1-oxide]			IC50 [1, 6]: 0.2 µM; IC50 [2, 7]: 0.05 µM
Cc1nnc2n1-c1ccc([N+](=O)[O-])cc1C(c1ccccc1)=NN2Cc1ccncc1 [compound 102]	1.15 µM	0.05 µM	

More lines, main results first:

IC50 [1, 4]	IC50 [2, 5]	Structure (SMILES)	further results
0.11 µM	0.001 µM	Cc1ccc(C2=NN(Cc3ccncc3)c3nnc(C)n3-c3ccccc32)cc1 [compound 103]	
0.06 µM	0.01 µM	Cc1sc2c(c1C)C(c1ccc(Cl)cc1)=NN(Cc1ccc(C#N)cc1)c1nnc(C)n1-2 [compound 115]	
0.01 µM	< 0.01 µM	Cc1sc2c(c1C)C(c1ccc(Cl)cc1)=NN(Cc1ccncc1)c1nnc(C)n1-2 [compound 114]	
< 0.01 µM	< 0.01 µM	Cc1nnc2n1-c1ccccc1C(c1ccc(Cl)cc1)=NN2Cc1ccc(C#N)cc1 [compound 39]	
3.9 µM	0.01 µM	Cc1nnc2n1-c1ccccc1C(c1ccc(Cl)cc1)=NC2NC(=O)c1cc2ccccc2[nH]1 (stereo not drawn) [compound 205]	
0.08 µM	0.01 µM	Cc1nnc2n1-c1ccccc1C(c1ccc(Cl)cc1)=NN2Cc1ccncc1 [compound 86]	
< 0.01 µM	< 0.01 µM	CCc1cc2c(s1)-n1c(C)nnc1N(Cc1ccc(C#N)cc1)N=C2c1ccc(Cl)cc1 [compound 119]	
> 10 µM	0.3 µM	Cc1nnc2n1-c1ccccc1C(c1ccc(Cl)cc1)=NC21NC(=O)N(c2ccccc2)C1=O (stereo not drawn) [compound 197]	
> 10 µM	0.4 µM	COc1ccc(OC)c(NC(=O)NC2N=C(c3ccc(Cl)cc3)c3ccccc3-n3c(C)nnc32)c1 (stereo not drawn) [compound 204]	
0.34 µM	0.03 µM	Cc1nnc2n1-c1ccccc1C(c1ccccc1)=NN2Cc1ccncc1 [compound 95]	
3.4 µM	0.6 µM	Cc1nnc2n1-c1ccccc1C(c1ccc(Cl)cc1)=NC2CC(=O)Nc1ccccc1 (stereo not drawn) [compound 195]	
< 0.01 µM	< 0.01 µM	Cc1ccc2c(c1)-n1c(C)nnc1N(Cc1ccc(C#N)cc1)N=C2c1ccc(Cl)cc1 [compound 108]	
0.06 µM	0.014 µM	COc1ccc(C2=NN(Cc3ccncc3)c3nnc(C)n3-c3sc(C)c(C)c32)cc1 [compound 129]	
0.22 µM	0.007 µM	Cc1ccc2c(c1)-n1c(C)nnc1N(Cc1ccncc1)N=C2c1ccccc1 [compound 97]	

Source: EP0934940A1, “CYTOKINE PRODUCTION INHIBITORS, TRIAZEPINE COMPOUNDS, AND INTERMEDIATES THEREOF” (Japan Tobacco Inc., priority 1996, dated 1997)
